# Experimental data taken from ChEMBL document CHEMBL5244272 (Eur J Med Chem, 2021).
# How the values were obtained:
# Format in all cases: functional, organism-based
# [1] = test system: Plasmodium falciparum; assay: Antimalarial activity against Plasmodium falciparum W2
# [2] = test system: Plasmodium falciparum; assay: Antimalarial activity against Plasmodium falciparum D10
# [3] = test system: Plasmodium falciparum; assay: Antimalarial activity against Plasmodium falciparum D6
# [4] = test system: Plasmodium falciparum; assay: Antimalarial activity against Plasmodium falciparum K1
# [5] = test system: Plasmodium falciparum; assay: Antimalarial activity against Plasmodium falciparum NF54
# [6] = test system: Plasmodium falciparum; assay: Antimalarial activity against Plasmodium falciparum Dd2
Compound,IC50 [1],IC50 [3],other results
CC1(C)OOC2(OCCCC34CC5CC(CC(C5)C3)C4)CCCC1C2 (stereo unspecified),160 nM,,IC50 [2]: 240 nM
C[C@@H]1CC[C@H]2[C@@H](CCCc3cc(C(F)(F)F)cc(C(F)(F)F)c3)C(=O)O[C@@H]3O[C@]4(C)CC[C@@H]1[C@]32OO4,7.11 ng/mL,0.78 ng/mL,IC50 [4]: 4.06 ng/mL
C[C@H]1[C@@H](OCc2ccc(C(=O)N(CCNc3ccnc4cc(Cl)ccc34)CC(=O)NC(C)(C)C)cc2)O[C@@H]2O[C@]3(C)CC[C@H]4[C@H](C)CC[C@@H]1[C@@]24OO3,,,IC50 [4]: 19 nM; IC50 [2]: 27 nM
C[C@H]1[C@@H](O[C@H](CCC(=O)O)c2ccc(Cl)cc2)O[C@@H]2O[C@]3(C)CC[C@H]4[C@H](C)CC[C@@H]1[C@@]24OO3,0.357 ng/mL,0.38 ng/mL,
CC1(C)OOC2(OCCc3ccccc3)CCCC1C2 (stereo unspecified),250 nM,,IC50 [2]: 670 nM
C[C@H]1[C@@H](OCc2ccc(C(=O)N(CCCNc3ccnc4cc(Cl)ccc34)CC(=O)NC3CCCCC3)cc2)O[C@@H]2O[C@]3(C)CC[C@H]4[C@H](C)CC[C@@H]1[C@@]24OO3,,,IC50 [4]: 21 nM; IC50 [2]: 35 nM
C[C@H]1[C@@H](OCc2ccc(C(=O)O)cc2)O[C@@H]2O[C@@]3(C)CC[C@H]4[C@H](C)CC[C@@H]1[C@@]24OO3,1.38 ng/mL,4.07 ng/mL,
C[C@@H]1CC[C@H]2[C@@H](CCCc3ccccc3)C(=O)O[C@@H]3O[C@]4(C)CC[C@@H]1[C@]32OO4,1.35 ng/mL,0.9 ng/mL,
C[C@@H]1CCC[C@@H](C)C12OOC1(OO2)[C@@H](C)CCC[C@@H]1C,> 1000 nM,> 1000 nM,
C[C@H]1[C@H](N2CCN(C(=O)Nc3ccc(F)cc3)CC2)O[C@@H]2O[C@]3(C)CC[C@H]4[C@H](C)CC[C@@H]1[C@@]24OO3,,,IC50 [4]: 0.85 nM; IC50 [5]: 1.21 nM; IC50 [6]: 9.2 nM
C[C@H]1[C@H](N2CCNCC2)O[C@@H]2O[C@]3(C)CC[C@H]4[C@H](C)CC[C@@H]1[C@@]24OO3,,,IC50 [5]: 3.2 nM
C[C@H]1[C@@H](Nc2cccc(F)c2)O[C@@H]2O[C@]3(C)CC[C@H]4[C@H](C)CC[C@@H]1[C@@]24OO3,< 0.16 ng/mL,< 0.16 ng/mL,
C[C@H]1[C@@H](O[C@H](CCC(=O)O)c2ccc(Br)cc2)O[C@@H]2O[C@]3(C)CC[C@H]4[C@H](C)CC[C@@H]1[C@@]24OO3,0.313 ng/mL,0.405 ng/mL,
C[C@H]1[C@@H](OCc2ccc(C(=O)N(CCNc3ccnc4cc(Cl)ccc34)CC(=O)NC3CCCCC3)cc2)O[C@@H]2O[C@]3(C)CC[C@H]4[C@H](C)CC[C@@H]1[C@@]24OO3,,,IC50 [4]: 23 nM; IC50 [2]: 26 nM
C[C@H]1[C@H](N2CCN([C@@H]3O[C@@H](C)[C@H](O)[C@@H](O)[C@H]3O)CC2)O[C@@H]2O[C@]3(C)CC[C@H]4[C@H](C)CC[C@@H]1[C@@]24OO3,0.74 nM,,IC50 [2]: 0.74 nM
CCCCC(=O)C1=C(C)[C@@H]2CC[C@@H](C)[C@@H]3CC[C@]4(C)OO[C@@]23[C@H](O1)O4,,,IC50 [5]: 4.3 nM
CC1(C)OOC2(OCCC34CC5CC(CC(C5)C3)C4)CCCC1C2 (stereo unspecified),440 nM,,IC50 [2]: 580 nM
CCN(CC)Cc1ccc(C(C)O[C@H]2O[C@@H]3O[C@]4(C)CC[C@H]5[C@H](C)CC[C@@H]([C@H]2C)[C@@]35OO4)cc1O (stereo partly specified),,,IC50 [4]: 0.18 ng/mL; IC50 [5]: 0.36 ng/mL
CC1(C)CCCCC12OOC1(CCCCC1(C)C)OO2 (stereo unspecified),> 1000 nM,> 1000 nM,
C[C@H]1[C@H](Nc2ccc(Br)cc2)O[C@@H]2O[C@]3(C)CC[C@H]4[C@H](C)CC[C@@H]1[C@@]24OO3,0.23 ng/mL,0.23 ng/mL,
CCCCNC(=O)CCC(C)[C@H]1CCC2C3C(C[C@H](OC(C)=O)[C@@]21C)[C@@]1(C)CC[C@]2(C[C@@H]1C[C@H]3OC(C)=O)OO[C@@]1(CC[C@@H]3C[C@@H](OC(C)=O)C4C5CC[C@H](C(C)CCC(=O)NCCCC)[C@@]5(C)[C@@H](OC(C)=O)CC4[C@@]3(C)C1)OO2 (stereo partly specified),,9.29 nM,

Compound,IC50 [1],IC50 [3],other results
CC1=C(C(=O)c2ccccc2)O[C@@H]2O[C@]3(C)CC[C@H]4[C@H](C)CC[C@@H]1[C@@]24OO3,,,IC50 [5]: 4.6 nM
C[C@H]1[C@H](N2CCN([C@@H]3O[C@H](CO)[C@@H](O)[C@H](O)[C@H]3O)CC2)O[C@@H]2O[C@]3(C)CC[C@H]4[C@H](C)CC[C@@H]1[C@@]24OO3,0.71 nM,,IC50 [2]: 0.87 nM
C[C@@H]1CC[C@H]2[C@@H](CCCc3cc(F)cc(F)c3)C(=O)O[C@@H]3O[C@]4(C)CC[C@@H]1[C@]32OO4,6.5 ng/mL,0.82 ng/mL,IC50 [4]: 3.2 ng/mL
C[C@H]1[C@H](Nc2ccc(I)cc2)O[C@@H]2O[C@]3(C)CC[C@H]4[C@H](C)CC[C@@H]1[C@@]24OO3,0.33 ng/mL,0.33 ng/mL,
C[C@H]1[C@H](N2CCN(C(=O)Nc3ccccc3)CC2)O[C@@H]2O[C@]3(C)CC[C@H]4[C@H](C)CC[C@@H]1[C@@]24OO3,,,IC50 [5]: 1.3 nM; IC50 [6]: 7.5 nM
C[C@H]1[C@H](N2CCN([C@@H]3O[C@H](CO)[C@H](O)[C@H]3O)CC2)O[C@@H]2O[C@]3(C)CC[C@H]4[C@H](C)CC[C@@H]1[C@@]24OO3,0.58 nM,,IC50 [2]: 0.66 nM
C[C@H]1[C@@H](O[C@@H]2O[C@H](CO)[C@@H](O)[C@H](O)[C@H]2O)O[C@@H]2O[C@]3(C)CC[C@H]4[C@H](C)CC[C@@H]1[C@@]24OO3,0.19 ng/mL,2.48 ng/mL,
C[C@H]1[C@H](Nc2ccccc2)O[C@@H]2O[C@]3(C)CC[C@H]4[C@H](C)CC[C@@H]1[C@@]24OO3,0.66 ng/mL,0.66 ng/mL,
C[C@@H]1CC[C@H]2[C@@H](CCCc3ccc(Cl)cc3)C(=O)O[C@@H]3O[C@]4(C)CC[C@@H]1[C@]32OO4,2.6 ng/mL,1.9 ng/mL,
CCCCCCCC[C@H]1CCC2C3CC[C@H]4C[C@]5(CC[C@]4(C)C3CC[C@@]21C)OO[C@]1(CC[C@@H]2CCC3C4CC[C@H](CCCCCCCC)[C@@]4(C)CCC3[C@@]2(C)C1)OO5 (stereo partly specified),,155 nM,
CC1=C(C(O)(c2ccccc2)c2ccccc2)O[C@@H]2O[C@]3(C)CC[C@H]4[C@H](C)CC[C@@H]1[C@@]24OO3,,,IC50 [5]: 4.5 nM
CC1(C)OOC2(OCC34CC5CC(CC(C5)C3)C4)CCCC1C2 (stereo unspecified),270 nM,,IC50 [2]: 330 nM
COC(=O)CC(C)CO[C@H]1O[C@@H]2O[C@]3(C)CC[C@H]4[C@H](C)CC[C@@H]([C@H]1C)[C@@]24OO3 (stereo partly specified),0.48 ng/mL,1.91 ng/mL,
C[C@@H]1CC[C@H]2[C@@H](C)C(=O)N(S(=O)(=O)c3ccc(C(F)(F)F)cc3)[C@@H]3O[C@]4(C)CC[C@@H]1[C@@]23OO4,2.39 nM,,IC50 [4]: 3.15 nM; IC50 [5]: 2.04 nM
C[C@@H]1CCCCC12OOC1(CCCC[C@@H]1C)OO2 (stereo partly specified) [WR-148999],7.3 nM,8.4 nM,
Cc1ccccc1COC12CCCC(C1)C(C)(C)OO2 (stereo unspecified),630 nM,,IC50 [2]: 740 nM
CC1(C)OOC2(OCc3ccccc3)CCCC1C2 (stereo unspecified),430 nM,,IC50 [2]: 800 nM
CC(C)OC[C@H]1O[C@@H](O[C@H]2O[C@@H]3O[C@]4(C)CC[C@H]5[C@H](C)CC[C@@H]([C@H]2C)[C@@]35OO4)[C@H](O)[C@@H](O)[C@@H]1OC(C)C,0.31 ng/mL,1.43 ng/mL,
C[C@H]1[C@H](NS(N)(=O)=O)O[C@@H]2O[C@]3(C)CC[C@H]4[C@H](C)CC[C@@H]1[C@@]24OO3,2.04 nM,,IC50 [4]: 1.79 nM; IC50 [5]: 3.1 nM
CCCC[C@H]1O[C@@H]2O[C@]3(C)CC[C@H]4[C@H](C)CC[C@@H]([C@H]1C)[C@@]24OO3,0.16 ng/mL,0.41 ng/mL,
